Test results from patent US20090082329A1 (AVENTIS PHARMA S.A., priority 2006, published 2009).
pIC50: −log10 of the molar value. Read-outs that look alike come from different tables or passages of the source.

Assays:
[1] = target: T1, human cytoplasmic domain of IGF-1R (Homo sapiens, UniProt P08069); assay: Kinase IGF-1R test: inhibition of autophosphorylation of the enzyme (HTRF); assay type: biochemical; settings: ATP 120 μM
T1 construct: The human cytoplasmic domain of IGF-1R was cloned by fusion with glutathione S-transferase (GST); made in house; host or cells: SF21 insect cells (baculovirus, pFastBac-GST)
Procedure: A) Experimental Protocol for the Kinase IGF-1R Test:
The inhibitory activity of the compounds on IGF1R is determined by measuring the inhibition of autophosphorylation of the enzyme using a time-resolved fluorescence test (HTRF). The human cytoplasmic domain of IGF-1R was cloned by fusion with glutathione S-transferase (GST) in the baculovirus expression vector pFastBac-GST. The protein is expressed in the SF21 cells and purified to about 80% homogeneity. For the enzymatic test, the test compound at 10 mM dissolved in DMSO is diluted in ⅓ steps in a 50 mM Hepes, pH 7.5, 5 mM MnCl2, 50 mM NaCl, 3% Glycerol, 0.025% Tween 20 buffer. To measure the inhibition, the successive dilutions of the compound are preincubated for 30 minutes and 90 minutes in the presence of 5 nM of enzyme, the final DMSO concentration not exceeding 1%. The enzymatic reaction is initiated to have a final ATP concentration of 120 μM, and is stopped after 5 minutes by addition of 100 mM Hepes, pH 7.0 buffer containing 0.4 M of potassium fluoride, 133 mM EDTA, 0.1% BSA, the XL665-labelled antibody anti-GST and the anti-phosphotyrosine antibody conjugated to europium cryptate Eu—K (Cis-Bio Int.). The characteristics of the two fluorophores, XL-665 and Eu—K, are available in G. Mathis et al., Anticancer Research, 1997, 17, pages 3011-3014. The energy transfer between the excited europium cryptate to the acceptor XL665 is proportional to the degree of autophosphorylation of IGF-1R. The specific long-lasting signal of XL-665 is measured in a GENios Pro TECAN plate counter. The inhibition of autophosphorylation of IGF-1R at time 30 minutes and 90 minutes with the test compounds of the invention is calculated relative to a 1% in DMSO control, whose activity is measured in the absence of compound. The curve representing the percentage of inhibition as a function of the log of the concentration is established to determine the concentration corresponding to 50% inhibition (IC50),

MEF-IGF1R cells = assay: Proliferation/viability of MEF-IGF1R (Thymidine [14C] incorporation); assay type: cell-based; settings: rhIGF1 100 ng/mL, incubation 72 hours, read-out: Test C IC50
Procedure: C) Measurement of the Proliferation/Viability of MEF-IGF1R
Cell culture: the MEF-IGF1R cells (stable clone of cells transfected with the receptor hIGF-1R) are cultured at 37° C. under 5% CO2 in EMEM medium containing 10% FCS.
Test procedure: the cells are seeded at 5000 cells per well in 96-well Cytostar plates (Amersham) with 0.2 mL of EMEM culture medium at 37° C. for 18 hours. The cells are then washed twice with EMEM medium and left to culture without serum for 24 hours. The compounds are then added at various concentrations in the presence of rhIGF1 (100 ng/mL) and 0.1 μCi of Thymidine [^14C] (specific activity ˜50 mCi/mmol) to give 0.2 mL of volume per well. After incubation for 72 hours in the presence of the compound, at 37° C. under 5% CO2, the incorporation of Thymidine [^14C] is measured by counting the radioactivity on a Microbeta trilux counter (Perkin-Elmer). The IC50 is determined from 10 increasing concentrations of the compound.
(§1) (i) The tests are performed in duplicate and the mean of the two tests is calculated.
(§2) (ii) The value of the signal of the maximum response is calculated from the positive control: cells stimulated with IGF1 without compound.
(§3) (iii) Value of the signal of the minimum response is calculated from the negative control: cells not stimulated with IGF1 without compound.
(§4) (iv) By using these values as maximum (100%) and minimum (0%), respectively, the data were normalized so as to give a percentage of the maximum response.
(§5) (v) A curve of dose response is plotted and the IC50 (the concentration of which the compound induces a 50% decrease in the signal) of the compound is calculated by non-linear regression analysis.

IGF-1R in MCF7 cells = IGF-1R in MCF7 cells (Homo sapiens, UniProt P08069); assay: Autophosphorylation of IGF-1R in MCF7 cells after stimulation with IGF-1 (ELISA); assay type: cell-based; design: endogenous in cells; host or cells: MCF-7 cells; settings: MCF-7 cells, compound added one hour before stimulation with IGF1; read-out: Test B IC50
Procedure: B) Measurement of the Autophosphorylation of IGF-1R in MCF7 Cells after Stimulation with IGF-1
Cell Culturing and Execution of the Test:
The autophosphorylation of IGF1R in the IGF1-induced cells is evaluated by means of an ELISA technique (Enzyme Linked ImmunoSorbent Assay). The MCF-7 are seeded at 60 000 cells per well in 6-well plates and incubated at 37° C., 5% CO2 in medium containing 10% serum. After one night in 10% serum, the cells are deprived of serum for 24 hours. The compounds are added to the medium one hour before stimulation with IGF1. After 10 minutes of stimulation with IGF1, the cells are lysed with a buffer (Hepes 50 mM pH 7.6, Triton X100 1%, orthovanadate 2 mM, protease inhibitor cocktail). The cell lysates are incubated on a 96-well plate precoated with an anti-IGF1R antibody, followed by incubation with an anti-phosphotyrosine antibody coupled to the enzyme peroxidase. The level of peroxidase activity (measured by OD with a luminescent substrate) reflects the phosphorylation status of the receptor.
as §1, §2, §3, §4, §5

[2] = preincubation 30 minutes with 5 nM enzyme, read-out: Test A 30′ IC50
[3] = preincubation 90 minutes with 5 nM enzyme, read-out: Test A 90′ IC50

T1 sequence (P08069 960-1367 limits assumed): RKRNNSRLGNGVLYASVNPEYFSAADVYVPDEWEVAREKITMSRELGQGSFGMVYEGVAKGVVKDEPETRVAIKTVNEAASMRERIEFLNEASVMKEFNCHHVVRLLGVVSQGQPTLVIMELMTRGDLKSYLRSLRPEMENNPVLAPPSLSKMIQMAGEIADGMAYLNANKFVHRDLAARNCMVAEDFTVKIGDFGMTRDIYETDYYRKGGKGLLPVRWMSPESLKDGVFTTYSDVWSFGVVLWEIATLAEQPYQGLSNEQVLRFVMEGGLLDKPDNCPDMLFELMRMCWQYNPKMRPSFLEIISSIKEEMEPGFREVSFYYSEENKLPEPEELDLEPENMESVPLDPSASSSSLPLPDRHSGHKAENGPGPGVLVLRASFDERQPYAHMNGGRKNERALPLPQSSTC
Chain of IGF-1R in MCF7 cells (P08069 31-1367): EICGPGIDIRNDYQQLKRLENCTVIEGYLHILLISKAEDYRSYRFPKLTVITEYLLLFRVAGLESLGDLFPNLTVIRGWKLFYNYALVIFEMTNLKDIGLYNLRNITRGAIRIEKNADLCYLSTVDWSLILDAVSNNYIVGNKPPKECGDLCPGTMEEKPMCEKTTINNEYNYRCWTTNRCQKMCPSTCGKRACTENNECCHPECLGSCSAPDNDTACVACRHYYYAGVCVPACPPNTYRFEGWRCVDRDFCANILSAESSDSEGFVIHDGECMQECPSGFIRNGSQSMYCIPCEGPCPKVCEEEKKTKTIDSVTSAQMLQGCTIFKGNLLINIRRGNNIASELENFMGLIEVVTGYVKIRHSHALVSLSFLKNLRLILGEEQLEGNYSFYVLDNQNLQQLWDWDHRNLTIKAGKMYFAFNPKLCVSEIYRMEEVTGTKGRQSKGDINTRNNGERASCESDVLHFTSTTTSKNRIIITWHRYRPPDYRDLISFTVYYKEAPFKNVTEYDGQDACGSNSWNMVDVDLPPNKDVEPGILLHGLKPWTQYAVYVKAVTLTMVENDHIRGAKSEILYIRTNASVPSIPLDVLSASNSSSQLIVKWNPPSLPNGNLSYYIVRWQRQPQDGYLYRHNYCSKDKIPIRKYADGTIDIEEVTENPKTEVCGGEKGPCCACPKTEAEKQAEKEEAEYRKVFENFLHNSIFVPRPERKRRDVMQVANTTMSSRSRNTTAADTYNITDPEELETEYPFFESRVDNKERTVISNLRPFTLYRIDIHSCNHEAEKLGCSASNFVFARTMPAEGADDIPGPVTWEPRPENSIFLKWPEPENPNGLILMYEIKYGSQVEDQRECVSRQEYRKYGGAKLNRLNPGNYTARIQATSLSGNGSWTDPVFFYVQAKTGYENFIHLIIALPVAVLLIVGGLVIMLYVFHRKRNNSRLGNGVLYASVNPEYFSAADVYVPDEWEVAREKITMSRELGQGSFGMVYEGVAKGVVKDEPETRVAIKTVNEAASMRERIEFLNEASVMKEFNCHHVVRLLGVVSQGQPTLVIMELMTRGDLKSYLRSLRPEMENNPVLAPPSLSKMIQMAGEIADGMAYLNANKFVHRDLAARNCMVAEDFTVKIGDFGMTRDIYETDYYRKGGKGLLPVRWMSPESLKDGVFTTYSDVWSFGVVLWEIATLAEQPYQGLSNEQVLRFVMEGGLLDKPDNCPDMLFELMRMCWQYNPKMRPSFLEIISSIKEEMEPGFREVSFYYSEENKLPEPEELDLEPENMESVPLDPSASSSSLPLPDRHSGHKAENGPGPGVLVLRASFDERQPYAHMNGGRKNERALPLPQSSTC

| Compound | pIC50 [1, 2] | pIC50 [1, 3] | pIC50 (IGF-1R in MCF7 cells) | pIC50 (MEF-IGF1R cells) |
| --- | --- | --- | --- | --- |
| 1-{4-[(5,5-dimethyl-2,4-dioxo-3-{4-[(trifluoro-methyl)thio]phenyl}imidazolidin-1-yl)methyl]pyridin-2-yl}-3-(2-morpholin-4-ylethyl)urea [Example 33] | 7.00 to 8.00 | 7.00 to 8.00 | – | < 7.00 |
| 1-{4-[(5,5-dimethyl-2,4-dioxo-3-{4-[(trifluoro-methyl)thio]phenyl}imidazolidin-1-yl)methyl]pyridin-2-yl}-3-[2-(4-methylpiperazin-1-yl)ethyl]urea [Example 32] | 7.00 to 8.00 | 7.00 to 8.00 | – | < 7.00 |
| CC1(C)C(=O)N(c2ccc(SC(F)(F)F)cc2)C(=O)N1Cc1ccnc(Nc2cc(Cl)ccc2Cl)c1 [Example 1, 1-({2-[(2,5-dichlorophenyl)amino]pyridin-4-yl}-methyl)-5,5-dimethyl-3-{4-[(trifluoromethyl)thio]phenyl}imidazolidine-2,4-dione] | < 7.00 | < 7.00 | < 7.00 | 7.00 to 8.00 |
| CC1(C)C(=O)N(c2ccc(SC(F)(F)F)cc2)C(=O)N1Cc1ccnc(NC(=O)N2CCCCC2)c1 [Example 2, N-{4-[(5,5-dimethyl-2,4-dioxo-3-{4-[(trifluoro-methyl)thio]phenyl}imidazolidin-1-yl)methyl]pyridin-2-yl}piperidine-1-carboxamide] | 7.00 to 8.00 | 7.00 to 8.00 | > 8.00 | 7.00 to 8.00 |
| CC1(C)C(=O)N(c2ccc(SC(F)(F)F)cc2)C(=O)N1Cc1ccnc(NC(=O)c2ccc(Cl)c(Cl)c2)c1 [Example 3, 3,4-dichloro-N-{4-[(5,5-dimethyl-2,4-dioxo-3-{4-[(trifluoromethyl)thio]phenyl}imidazolidin-1-yl)methyl]pyridin-2-yl}benzamide] | < 7.00 | < 7.00 | < 7.00 | 7.00 to 8.00 |
| CNC(=O)Nc1cc(CN2C(=O)N(c3ccc(S(=O)(=O)C(F)(F)F)cc3)C(=O)C2(C)C)ccn1 [Example 4, 1-{4-[(5,5-dimethyl-2,4-dioxo-3-{4-[(trifluoro-methyl)sulfonyl]phenyl}imidazolidin-1-yl)methyl]pyridin-2-yl}-3-methylurea] | < 7.00 | 7.00 to 8.00 | > 8.00 | 7.00 to 8.00 |
| CC1(C)C(=O)N(c2ccc(SC(F)(F)F)cc2)C(=O)N1Cc1ccnc(Nc2cc(F)ccc2F)c1 [Example 5, 1-({2-[(2,5-difluorophenyl)amino]pyridin-4-yl}-methyl)-5,5-dimethyl-3-{4-[(trifluoromethyl)thio]phenyl}imidazolidine-2,4-dione] | 7.00 to 8.00 | – | < 7.00 | 7.00 to 8.00 |
| CN(C)C(=O)Nc1nccc(CN2C(=O)N(c3ccc(SC(F)(F)F)cc3)C(=O)C2(C)C)n1 [Example 10, 3-{4-[(5,5-dimethyl-2,4-dioxo-3-{4-[(trifluoro-methyl)thio]phenyl}imidazolidin-1-yl)methyl]pyrimidin-2-yl}-1,1-dimethylurea] | < 7.00 | < 7.00 | – | < 7.00 |
| CN(C)C(=O)Nc1nccc(CN2C(=O)N(c3ccc(S(=O)(=O)C(F)(F)F)cc3)C(=O)C2(C)C)n1 [Example 12, 3-{4-[(5,5-dimethyl-2,4-dioxo-3-{4-[(trifluoro-methyl)sulfonyl]phenyl}imidazolidin-1-yl)methyl]pyrimidin-2-yl}-1,1-dimethylurea] | < 7.00 | < 7.00 | – | < 7.00 |
| CN(C)CCCNC(=O)Nc1cc(CN2C(=O)N(c3ccc(SC(F)(F)F)cc3)C(=O)C2(C)C)ccn1 [Example 38, 1-[3-(dimethylamino)propyl]-3-{4-[(5,5-dimethyl-2,4-dioxo-3-{4-[(trifluoromethyl)thio]phenyl}imidazolidin-1-yl)methyl]pyridin-2-yl}urea] | 7.00 to 8.00 | 7.00 to 8.00 | – | < 7.00 |

The next lines start with results.

| pIC50 [1, 2] | pIC50 [1, 3] | pIC50 (IGF-1R in MCF7 cells) | Compound | pIC50 (MEF-IGF1R cells) |
| --- | --- | --- | --- | --- |
| 7.00 to 8.00 | > 8.00 | – | CC1(C)C(=O)N(c2ccc(SC(F)(F)F)cc2)C(=O)N1Cc1ccnc(NC(=O)NC2CC(CO)C2)c1 (mixture of isomers) [Example 40B Stage a), 1-{4-[(5,5-dimethyl-2,4-dioxo-3-{4-[(trifluoro-methyl)thio]phenyl}imidazolidin-1-yl)methyl]pyridin-2-yl}-3-[3-(hydroxymethyl)cyclobutyl]urea] | – |
| < 7.00 | 7.00 to 8.00 | – | CC1(C)C(=O)N(c2ccc(SC(F)(F)F)cc2)C(=O)N1Cc1ccnc(Nc2cncc(F)c2)c1 [Example 17, 1-({2-[(5-fluoropyridin-3-yl)amino]pyridin-4-yl}-methyl)-5,5-dimethyl-3-{4-[(trifluoromethyl)thio]phenyl}imidazolidine-2,4-dione] | < 7.00 |
| < 7.00 | 7.00 to 8.00 | – | CC1(C)C(=O)N(c2ccc(SC(F)(F)F)cc2)C(=O)N1Cc1ccnc(NC(=O)NC2CCCCC2)c1 [Example 25, 1-cyclohexyl-3-{4-[(5,5-dimethyl-2,4-dioxo-3-{4-[(trifluoromethyl)thio]phenyl}imidazolidin-1-yl)methyl]pyridin-2-yl}urea] | < 7.00 |
| < 7.00 | 7.00 to 8.00 | – | CC1(C)C(=O)N(c2ccc(SC(F)(F)F)cc2)C(=O)N1Cc1ccnc(NC(=O)NCCN2CCCCC2)c1 [Example 31, 1-{4-[(5,5-dimethyl-2,4-dioxo-3-{4-[(trifluoro-methyl)thio]phenyl}imidazolidin-1-yl)methyl]pyridin-2-yl}-3-(2-piperidin-1-ylethyl)urea] | < 7.00 |
| < 7.00 | 7.00 to 8.00 | – | CCCCNC(=O)Nc1cc(CN2C(=O)N(c3ccc(SC(F)(F)F)cc3)C(=O)C2(C)C)ccn1 [Example 37, 1-butyl-3-{4-[(5,5-dimethyl-2,4-dioxo-3-{4-[(tri-fluoromethyl)thio]phenyl}imidazolidin-1-yl)methyl]pyridin-2-yl}urea] | 7.00 to 8.00 |
| 7.00 to 8.00 | > 8.00 | – | CN(C)CCCCNC(=O)Nc1cc(CN2C(=O)N(c3ccc(SC(F)(F)F)cc3)C(=O)C2(C)C)ccn1 [Example 40, 1-[4-(dimethylamino)butyl]-3-{4-[(5,5-dimethyl-2,4-dioxo-3-{4-[(trifluoromethyl)thio]phenyl}imidazolidin-1-yl)-methyl]pyridin-2-yl}urea] | < 7.00 |
